Test results published in patent publication US4001218A, “Penicillins” (Bayer Aktiengesellschaft, priority 1972, dated 1977).
Each block holds one compound with its values, some of them ahead of it.

Experiments:
[1] = system: Proteus vulg. 1017; assay type: cell-based, Proteus vulgaris; settings: for MIC: Proteus 1017, 24 hours, 37°C
[2] = system: Staph. aureus 133; assay type: cell-based, Staphylococcus aureus; settings: for MIC: Staph. aureus 133, 24 hours, 37°C
[3] = system: E. coli 14; assay type: cell-based; settings: for MIC: E. coli 14, 24 hours, 37°C
[4] = system: Psdm. aerug. F 41; experiment: MIC, test tube series dilution test, Psdm. aerug. F 41; assay type: cell-based, Pseudomonas aeruginosa
[5] = system: Klebsiella 63; experiment: MIC, test tube series dilution test, Klebsiella 63; assay type: cell-based; settings: 24 hours' incubation
[6] = system: E. coli A 261; experiment: MIC, test tube series dilution test, E. coli A 261; assay type: cell-based; settings: 24 hours, 37°C
[7] = system: Enterococcus 9790; experiment: MIC, test tube series dilution test, Enterococcus 9790; assay type: cell-based; settings: 24 hours, 37°C
[8] = system: Proteus morg. 932; experiment: MIC, test tube series dilution test, Proteus morg. 932; assay type: cell-based; settings: 24 hours, 37°C

Compound: CC1(C)S[C@@H]2[C@H](NC(=O)[C@H](NC(=O)CNC(=O)c3ccc(NC(=O)C4=CCCCC4)cc3)c3ccccc3)C(=O)N2[C@H]1C(=O)O [Example 67]
MIC [1]: > 256 U/ml
MIC [2]: < 1 U/ml

Compound: CC1(C)S[C@@H]2[C@H](NC(=O)[C@H](NC(=O)c3ccc(NC(=O)c4ccc(S(C)(=O)=O)cc4)cc3)c3ccccc3)C(=O)N2[C@H]1C(=O)O [Example 80, sodium D(-)-α-[4-(p-methylsulphonylbenzoylamino)-benzoylamino]-benzylpenicillin]
Activity against E. coli 14 (minimum inhibitory concentration) ([3]; 24 hours' incubation): 4-8 U/ml
Activity against Proteus vulg. 1017 (minimum inhibitory concentration) ([1]; 24 hours' incubation): 128-256 U/ml
Activity against Psdm. aerug. F 41 (minimum inhibitory concentration) ([4]; 24 hours' incubation): 32-64 U/ml
Activity against Klebs. 63 (minimum inhibitory concentration) [5]: 32-64 U/ml
Activity against Staph. aureus 133 (minimum inhibitory concentration) ([2]; 24 hours' incubation): < 1 U/ml

Compound: CC1(C)S[C@@H]2[C@H](NC(=O)[C@H](NC(=O)c3ccc(NC(=O)c4ccc([N+](=O)[O-])cc4)cc3[N+](=O)[O-])c3ccccc3)C(=O)N2[C@H]1C(=O)O [Example 27, sodium D(-)-α-[4-(4-nitrobenzoylamino)-2-nitrobenzoylamino]-benzylpenicillin]
MIC [6]: > 256 U/ml
MIC [2]: < 1 U/ml

Compound: CC1(C)S[C@@H]2[C@H](NC(=O)[C@H](NC(=O)c3ccc(NC(=O)c4cccs4)cc3)c3ccccc3)C(=O)N2[C@H]1C(=O)O [Example 48]
MIC [2]: < 1 U/ml

Compound: CC1(C)S[C@@H]2[C@H](NC(=O)[C@H](NC(=O)CNC(=O)c3ccc([N+](=O)[O-])cc3)c3ccccc3)C(=O)N2[C@H]1C(=O)O [Example 69]
MIC [6]: > 256 U/ml
MIC [2]: < 1 U/ml

MIC [3]: < 1 U/ml
MIC [6]: > 256 U/ml
MIC [2]: < 1 U/ml
MIC [7]: ~ 16 U/ml
Compound: CC1(C)S[C@@H]2[C@H](NC(=O)[C@H](NC(=O)c3ccc(NC(=O)CCC4CCCCC4)cc3)c3ccccc3)C(=O)N2[C@H]1C(=O)O [Example 10, sodium D(-)-α-[4-(3-cyclohexanepropionylamino-benzoylamino)]-benzylpenicillin]

Compound: CC1(C)S[C@@H]2[C@H](NC(=O)[C@H](NC(=O)c3ccc(NC(=O)c4ccc5c(c4)OCO5)cc3)c3ccccc3)C(=O)N2[C@H]1C(=O)O [Example 24]
MIC [6]: > 256 U/ml
MIC [2]: < 1 U/ml

Compound: CC1(C)S[C@@H]2[C@H](NC(=O)[C@H](NC(=O)CSc3ccc(NC(=O)CC4C=CCC4)cc3)c3ccccc3)C(=O)N2[C@H]1C(=O)O (stereo partly drawn) [Example 62]
MIC [6]: > 256 U/ml

Compound: CC(CC(=O)Nc1ccc(C(=O)N[C@@H](C(=O)N[C@@H]2C(=O)N3[C@@H]2SC(C)(C)[C@@H]3C(=O)O)c2ccccc2)cc1)N=[N+]=[N-] (stereo partly drawn) [Example 40]
MIC [6]: > 256 U/ml
MIC [2]: < 1 U/ml

Compound: CC1(C)S[C@@H]2[C@H](NC(=O)[C@H](NC(=O)C=Cc3ccc([N+](=O)[O-])cc3)c3ccccc3)C(=O)N2[C@H]1C(=O)O [Example 54]
MIC [6]: > 256 U/ml
MIC [2]: < 1 U/ml

Compound: CC1(C)S[C@@H]2[C@H](NC(=O)[C@H](NC(=O)c3ccc(NC(=O)C4CC4)c([N+](=O)[O-])c3)c3ccccc3)C(=O)N2[C@H]1C(=O)O [Example 4, sodium D(-)-α-(4-cyclopropanecarbonylamino-3-nitro-benzoylamino)-benzylpenicillin]
MIC [6]: > 256 U/ml
MIC [8]: > 256 U/ml
MIC [2]: < 1 U/ml

Compound: CC1(C)S[C@@H]2[C@H](NC(=O)[C@H](NC(=O)C=Cc3ccc(NC(=O)C4CC4)cc3)c3ccccc3)C(=O)N2[C@H]1C(=O)O [Example 56]
MIC [6]: > 256 U/ml
MIC [2]: < 1 U/ml

Compound: CC1(C)S[C@@H]2[C@H](NC(=O)[C@H](NC(=O)c3ccc(NC(=O)C4CC4)cc3[N+](=O)[O-])c3ccccc3)C(=O)N2[C@H]1C(=O)O [Example 3, sodium D(-)-α-(4-cyclopropanecarbonylamino-2-nitrobenzoylamino)-benzylpenicillin]
MIC [6]: > 256 U/ml

Compound: CC1(C)S[C@@H]2[C@H](NC(=O)[C@H](NC(=O)c3cc(NC(=O)C4CC4)cc(NC(=O)C4CC4)c3)c3ccccc3)C(=O)N2[C@H]1C(=O)O [Example 72]
MIC [6]: > 256 U/ml
MIC [8]: > 256 U/ml
MIC [2]: < 1 U/ml
MIC [7]: ~ 16 U/ml

Compound: CC1(C)S[C@@H]2[C@H](NC(=O)[C@H](NC(=O)CSc3ccc(NC(=O)C4CC4)cc3)c3ccccc3)C(=O)N2[C@H]1C(=O)O [Example 60]
MIC [6]: > 256 U/ml
MIC [1]: ~ 4 U/ml
MIC ([4]; Psdm. aerug. F 41, 24 hours, 37°C): ~ 256 U/ml

Compound: CC1(C)S[C@@H]2[C@H](NC(=O)[C@H](NC(=O)c3ccc(NC(=O)c4cc([N+](=O)[O-])cc([N+](=O)[O-])c4)cc3)c3ccccc3)C(=O)N2[C@H]1C(=O)O [Example 19]
MIC [3]: < 1 U/ml
MIC [6]: > 256 U/ml
MIC [1]: ~ 16 U/ml
MIC [2]: < 1 U/ml

Compound: CC1(C)S[C@@H]2[C@H](NC(=O)[C@H](NC(=O)C=Cc3ccc(NC(=O)C4CCC4)cc3)c3ccccc3)C(=O)N2[C@H]1C(=O)O [Example 57]
MIC [3]: ~ 1 U/ml
MIC [6]: > 256 U/ml
MIC [2]: < 1 U/ml

Compound: CC1(C)S[C@@H]2[C@H](NC(=O)[C@H](NC(=O)CNC(=O)c3ccc(N=[N+]=[N-])cc3)c3ccccc3)C(=O)N2[C@H]1C(=O)O [Example 68]
MIC [6]: > 256 U/ml
MIC [2]: < 1 U/ml

Compound: CC1(C)S[C@@H]2[C@H](NC(=O)[C@H](NC(=O)c3ccc(NC(=O)CC4CC5CCC4C5)cc3)c3ccccc3)C(=O)N2[C@H]1C(=O)O (single isomer, unassigned) [Example 15, sodium D(-)-α-[4-(2-norbornylacetamido-benzoylamino)]-benzylpenicillin]
MIC [6]: > 256 U/ml
MIC [2]: < 1 U/ml

Compound: COc1cc(C(=O)Nc2ccc(SCC(=O)N[C@@H](C(=O)N[C@@H]3C(=O)N4[C@@H]3SC(C)(C)[C@@H]4C(=O)O)c3ccccc3)cc2)cc(OC)c1OC [Example 58]
MIC [3]: ~ 16 U/ml
MIC [1]: > 256 U/ml
MIC [2]: < 1 U/ml

Compound: CC1(C)S[C@@H]2[C@H](NC(=O)[C@H](NC(=O)C=Cc3ccc(NC=O)cc3)c3ccccc3)C(=O)N2[C@H]1C(=O)O [Example 55]
MIC [1]: > 256 U/ml
MIC [2]: < 1 U/ml

MIC [3]: < 1 U/ml
MIC [2]: < 1 U/ml
Compound: CC1(C)S[C@@H]2[C@H](NC(=O)[C@H](NC(=O)c3ccc(NC(=O)C4CCCCCC4)cc3)c3ccccc3)C(=O)N2[C@H]1C(=O)O [Example 13, sodium D(-)-α-(4-cycloheptanecarbonylamino-benzoylamino)-benzylpenicillin]

Compound: CC1(C)S[C@@H]2[C@H](NC(=O)[C@H](NC(=O)c3ccc(NC(=O)C4CC4)c(NC(=O)C4CC4)c3)c3ccccc3)C(=O)N2[C@H]1C(=O)O [Example 75]
MIC [6]: > 256 U/ml
MIC [8]: > 256 U/ml
MIC [2]: < 1 U/ml
MIC [7]: ~ 16 U/ml

MIC [6]: > 256 U/ml
MIC [2]: < 1 U/ml
Compound: CC1(C)S[C@@H]2[C@H](NC(=O)[C@H](NC(=O)c3ccc(NC(=O)C4CCC4)cc3[N+](=O)[O-])c3ccccc3)C(=O)N2[C@H]1C(=O)O [Example 6, sodium D(-)-α-(4-cyclobutanecarbonylamino-2-nitro-benzoylamino)-benzylpenicillin]

Compound: CC1(C)S[C@@H]2[C@H](NC(=O)[C@H](NC(=O)c3cccc(NC(=O)C4CC4)c3)c3ccccc3)C(=O)N2[C@H]1C(=O)O [Example 51]
MIC [3]: ~ 16 U/ml
MIC [6]: > 256 U/ml
MIC [8]: > 256 U/ml
MIC [2]: < 1 U/ml

Compound: CC1(C)S[C@@H]2[C@H](NC(=O)[C@H](NC(=O)CNC(=O)c3ccc(NC=O)cc3)c3ccccc3)C(=O)N2[C@H]1C(=O)O [Example 63]
MIC [3]: ~ 1 U/ml
MIC [6]: > 256 U/ml
MIC [8]: > 256 U/ml
MIC [2]: < 1 U/ml
MIC [7]: ~ 4 U/ml

Compound: CC1(C)S[C@@H]2[C@H](NC(=O)[C@H](NC(=O)CNC(=O)c3ccc(NC(=O)C4CCC4)cc3)c3ccccc3)C(=O)N2[C@H]1C(=O)O [Example 65]
MIC [6]: > 256 U/ml
MIC [8]: > 256 U/ml
MIC [2]: < 1 U/ml

MIC [6]: > 256 U/ml
MIC [2]: < 1 U/ml
Compound: CC1(C)S[C@@H]2[C@H](NC(=O)[C@H](NC(=O)c3ccc(NC(=O)CCC4CCCC4)cc3)c3ccccc3)C(=O)N2[C@H]1C(=O)O [Example 9, sodium D(-)-α-(4-[3-cyclopentylpropionylaminobenzoylamino)]-benzylpenicillin]

Compound: CC1(C)S[C@@H]2[C@H](NC(=O)[C@H](NC(=O)c3cc(NC(=O)C4CCC4)cc(NC(=O)C4CCC4)c3)c3ccccc3)C(=O)N2[C@H]1C(=O)O [Example 73]
MIC [6]: > 256 U/ml
MIC [2]: < 1 U/ml

Compound: Cc1cc(C(=O)N[C@@H](C(=O)N[C@@H]2C(=O)N3[C@@H]2SC(C)(C)[C@@H]3C(=O)O)c2ccccc2)ccc1N [Example 32, sodium D(-)-α-(4-amino-3-methyl-benzoylamino)-benzyl-penicillin]
MIC [6]: > 256 U/ml
MIC [2]: < 1 U/ml

Compound: CC1(C)S[C@@H]2[C@H](NC(=O)[C@H](NC(=O)c3cc(NC=O)cc(NC=O)c3)c3ccccc3)C(=O)N2[C@H]1C(=O)O [Example 71]
MIC [3]: ~ 4 U/ml
MIC [6]: > 256 U/ml
MIC [8]: > 256 U/ml
MIC [2]: < 1 U/ml

MIC [6]: > 256 U/ml
MIC [2]: < 1 U/ml
Compound: Cc1cc(C(=O)N[C@@H](C(=O)N[C@@H]2C(=O)N3[C@@H]2SC(C)(C)[C@@H]3C(=O)O)c2ccccc2)ccc1[N+](=O)[O-] [Example 31, sodium D(-)-α-(4-nitro-3-methylbenzoylamino)-benzylpenicillin]
